Experimental findings from patent US20250127719A1, “ANISAMIDE-CONTAINING LIPIDS AND COMPOSITIONS AND METHODS OF USE THEREOF” (The Trustees Of The University Of Pennsylvania, priority 2021, published 2025) are described below.

SMILES strings stand for the structures.

Data set [1] has as its system activated 3T3-GFP fibroblasts. The experiment in a line: High-throughput screening of LNPs: GFP knockdown, plate reader. The following applies: 50 nM siGFP, 48 h post-treatment. The format is cell-based, murine. On the procedure: High-throughput screening of LNPs was performed by evaluating GFP knockdown efficiency in 96-well plates using a plate reader assay. 3T3-GFP cells were re-suspended in DMEM containing 10 ng/ml of TGF-β, and seeded into a 96-well plate at a density of 5,000 cells per well. After 24 h, activated cells were treated with various LNPs loaded with siGFP (50 nM). At 48 h post-treatment, the GFP signal in each well was obtained using an Infinite M Plex plate reader (Tecan, Morrisville, NC, USA) with an excitation of 488 nm and an emission of 520 nm. Cell viability was measured using a CellTiter-Glo Luminescent Cell Viability Assay according to the manufacturer's instruction (G7572, Promega).

Data set [2] is described as follows: siRNA encapsulation efficiency, RiboGreen RNA assay. The format is physicochemical. The following applies: weight ratio of AA-T3A-C12:siRNA 10:1. On the procedure: (§1) The hydrodynamic diameter, polydispersity index (PDI), and zeta potential of LNPs were measured using a Zetasizer Nano ZS90 (Malvern Instruments, Malvern, UK). The morphology of LNPs was characterized by transmission electron microscopy (JEOL 1010, Tokyo, Japan). The siRNA-LNP complex was analyzed by agarose gel electrophoresis. siRNA encapsulation efficiency was determined using a modified Quant-iT RiboGreen RNA assay (Invitrogen) as previously described. The pKa of LNP was determined by 6-(p-toluidinyl)naphthalene-2-sulfonic acid (TNS) assay as previously described.

Data set [3] deals with activated 3T3-GFP fibroblasts. The experiment in a line: Second-round screening: dependency on sigma receptor-mediated transfection (haloperidol pre-treatment). The following applies: 30 μM haloperidol 2 h, then 50 nM siGFP LNP 48 h. The class given is cell-based, murine. How it is done:
The top-performing LNPs were subjected to a second round of screening by evaluating their dependency on sigma receptor-mediated transfection. Activated 3T3-GFP cells were treated with or without haloperidol (30 μM) for 2 h before various LNPs loaded with siGFP (50 nM) were used to treat these cells for another 48 h. The GFP signal in each well was obtained as described above.

A short description of data set [4]: Gel retardation assay (agarose gel electrophoresis). The format is physicochemical. The following applies: weight ratio of AA-T3A-C12:siRNA above 5:1; 500 ng siRNA per lane. On the procedure:
FIGS. 11A-11B depict optimization of the weight ratio of AA-T3A-C12 to siRNA. FIG. 11A: gel retardation assay. LNPs with different weight ratios of AA-T3A-C12:siRNA were analyzed by 1% agarose gel electrophoresis. 500 ng siRNA was loaded into each lane. […] FIG. 11B: RiboGreen RNA assay. The siRNA encapsulation efficiency reached a plateau of ˜90% when the weight ratio of AA-T3A-C12:siRNA was 10:1. Data are presented as mean±SD (n=3).
as §1

For `CCCCCCCCCCC(O)CN(CCN(CCNC(=O)c1ccc(OC)cc1)CCN(CC(O)CCCCCCCCCC)CC(O)CCCCCCCCCC)CC(O)CCCCCCCCCC` (stereo not shown) [AA-110-C12], the GFP knockdown in data set [1] was roughly 70%.

As to `CCCCCCCCCCC(O)CN(CCCN(CCCNC(=O)c1ccc(OC)cc1)CCCN(CC(O)CCCCCCCCCC)CC(O)CCCCCCCCCC)CC(O)CCCCCCCCCC` (stereo not shown) [AA-T3A-C12, N-(3-(bis(3-(bis(2-hydroxydodecyl)amino)propyl)amino)propyl)-4-methoxybenzamide], the “siRNA encapsulation efficiency plateau” value in data set [2] was roughly 90%. Moreover, the “change of GFP silencing activity after haloperidol (HP) treatment” value in data set [3] is given as “the most significant loss of activity”. Further, the “free siRNA in gel retardation assay” value in data set [4] was “Little to no free siRNA was observed”.
